Results published in patent US9102669B2, “Substituted piperidinyl-pyridazinyl derivatives useful as SCD 1 inhibitors” (Janssen Pharmaceutica NV, priority 2011, dated 2015).
pIC50: −log10 of the molar value. Where “and” joins values, the source holds several entries; their conditions need not be identical. Identical values can stand only once.

Legend:
[1] = molecular target: SCD1 (Homo sapiens (Human), UniProt O00767); test: SCD1 13C-palmitic acid assay in A431 cells; type: cell-based; details: read-out: A431 cells 13C-PA IC50
Description: Human epithelial carcinoma A431 cells were seeded at 100,000 cells/well in complete growth medium (DMEM, Cellgro#10-013-CM, 4.5 g/L glucose, 10% FBS) in the presence of 0.05 mg/mL human insulin (Hannas Pharmaceutical Supply Co Inc, Humanlin 100 U/ml, 4 mg/ml) in 96-well tissue culture plate. 24 hr later, the cells were washed extensively with Assay Buffer (DMEM, Cellgro#10-013-CM, 4.5 g/L glucose, supplemented with 0.05 mg/mL Human Insulin and 0.1% Fatty Acid Free BSA). […] The cells were then returned to the tissue culture incubator (37° C. and 5% CO2) for 4 hrs. At the end of incubation, the cells were washed three times with 200 μL/well Hanks buffer (HBSS) and then stored at −20° C. until extraction.
For fatty acid extraction, after thawing out the plates, 40 μL of 1N KOH (containing 5 μM of internal standard 7,7,8,8-D4 palmitate) was added to each well and cell plates were incubated at 37° C. for 30 minutes. […] Acetonitrile (100 μL) was then added to extract fatty acids, followed by centrifugation at 3000 rpm for 10 minutes. 75 μL of extract was then transferred to a new glass vial in a 96-well cluster plate. 5 μL was injected for LC/MS analysis for detection of ^13C-palmitic acid and ^13C-palmitoleic acid. Formation of product ^13C-palmitoleic acid was determined as an index of SCD1 activity.
LC/MS analysis was performed as following. An Agilent 1100 Liquid Chromatographic System (Palo Alto, Calif.) consisting of a binary pump, a degasser and an autosampler was used. Separation of free fatty acids was performed on a Zorbax SB-C8 column (2.1×50 mm, particle size=3.5 μm). An isocratic elution was carried out with 10 mM triethylamine acetate in water: acetonitrile (3:7) at a flow rate of 0.3 mL/min. The column temperature was set at 30° C. and the sample injection volume was 5 μL. The LC run cycle was 4 min. A Micromass triple-quadrupole Quattro Micro mass […] (Waters, Beverly, Mass.) was interfaced with the LC system through a Z-spray electrospray ion source and was operated in the negative ion mode. Nitrogen was used as nebulizing gas, desolvation gas and cone curtain gas and argon was chosen as collision gas. The triple quadrupole MS source parameters were set as follows: capillary voltage, 3200V; cone voltage, 25V; exctractor 2V; source temperature, 120° C.; desolvation temperature, 300° C.; cone gas flow, 50 L/h; and desolvation gas flow, 700 L/h. […] MassLynx software version 4.0 was used for system control and data processing. The signal of U-^13C-palmitoleic acid was normalized to an internal standard.

[2] = molecular target: SCD1 (Rattus norvegicus (Rat), UniProt P07308); test: SCD1 enzymatic assay in rat liver microsomes (RLM); type: biochemical; details: rat liver microsomes; for inhibition at 1 µM: 1 μM test compound, read-out: % Inh.@ 1 μM
Description: Step 1: Preparation of Rat Liver Microsome (RLM):
Sprague Dawley rats from Charles River (200-225 g) underwent 2-cycle of fast-re-feeding (24-hour fast followed by 24-hour feeding with fat-free high carbohydrate diet, Reseach Diet, D00042802). The livers were removed and homogenized 1:4 (w/v) with pre-chilled, homogenizing buffer (10 mM Tris-HCl, 0.25 M sucrose, 1 mM EDTA, pH 7.4, supplemented with protease inhibitor cocktail). The homogenate was spun at 12,000×g for 15 min at 4° C. The supernatant was then re-centrifuged at 100,000×g for 60 min at 4° C. The pellet was re-suspended in 2 ml pre-chilled […] potassium phosphate buffer, pH 7.2, 10 mM EDTA at a concentration of 20 mg/ml. The resulting rat liver microsome (RLM) preparation was stored at −80° C.
Step 2: SCD1 Enzymatic Assay in RLM:
The SCD1 enzymatic assay was done in a volume of 50 μL using 10 μg of RLM (prepared as described above) in a 96-well polypropylene plate (enzyme reaction buffer contains 0.1 M K-Phosphate Buffer, 10 mM ATP, 6 mM MgCl2. 1 mM CoA, 1 mM β-NADH, 1.6 mM L-glutathione, 20 μM Stearoyl-CoA). Stearoyl-[9,10-^3H]-CoA (ARC-0390, 1 mCi/mL, 60 Ci/mmol,) was added at a final concentration of 2 μCi/mL. Test compound was then added to the reaction mixture at the selected concentration. After incubation at room temperature for 2 hours, 5 μL 1 N HCl was added to stop the reaction, followed by addition of 25 μL of 10% charcoal. The reaction mixture was then transferred to 96-well Multiscreen plate (Millipore, Cat#MSFCN6B50). […] The measured cpm values were fitted with Sigmoidal dose-response curve fit with Graphpad Prism.

Chain of SCD1 (Homo sapiens (Human), UniProt O00767) (O00767 whole entry): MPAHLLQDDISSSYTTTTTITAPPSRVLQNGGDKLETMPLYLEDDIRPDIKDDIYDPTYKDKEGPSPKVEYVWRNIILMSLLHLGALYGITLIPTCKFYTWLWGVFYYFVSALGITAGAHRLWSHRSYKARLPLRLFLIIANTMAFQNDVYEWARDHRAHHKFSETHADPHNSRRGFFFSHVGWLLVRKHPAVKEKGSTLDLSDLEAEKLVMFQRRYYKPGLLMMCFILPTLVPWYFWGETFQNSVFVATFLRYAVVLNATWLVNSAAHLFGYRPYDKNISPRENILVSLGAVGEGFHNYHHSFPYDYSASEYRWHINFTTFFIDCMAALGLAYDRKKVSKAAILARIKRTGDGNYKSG
Chain of SCD1 (Rattus norvegicus (Rat), UniProt P07308) (P07308 whole entry): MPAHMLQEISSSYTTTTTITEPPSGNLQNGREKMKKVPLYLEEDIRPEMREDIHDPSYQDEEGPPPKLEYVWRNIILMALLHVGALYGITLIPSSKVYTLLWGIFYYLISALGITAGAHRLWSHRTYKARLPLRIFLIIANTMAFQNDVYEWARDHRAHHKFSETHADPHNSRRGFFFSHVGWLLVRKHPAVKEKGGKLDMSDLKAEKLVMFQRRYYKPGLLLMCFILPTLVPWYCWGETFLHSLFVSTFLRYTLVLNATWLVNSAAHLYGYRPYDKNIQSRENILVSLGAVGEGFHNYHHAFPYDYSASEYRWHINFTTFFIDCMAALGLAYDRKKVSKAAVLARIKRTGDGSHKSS

pIC50 [1]	inhibition at 1 µM [2]	pIC50 [2]	Compound
7.77	75%	7.02	COc1ncc(-c2ccc(N3CCC(c4noc5ccc(F)cc45)CC3)nn2)cn1 [compound 34, 5-fluoro-3-(1-(6-(2-methoxypyrimidin-5-yl)pyridazin-3-yl)piperidin-4-yl)benzo[d]isoxazole]
8.70	99%	8.10	OCc1ccc(-c2ccc(N3CCC(c4noc5ccc(F)cc45)CC3)nn2)cn1 [compound 35, (5-(6-(4-(5-fluorobenzo[d]isoxazol-3-yl)piperidin-1-yl)pyridazin-3-yl)pyridin-2-yl)methanol]
7.47	97%	7.96	COc1ncc(-c2ccc(N3CCC(N4CCc5ccc(F)cc54)CC3)nn2)cn1 [compound 38, 6-fluoro-1-(1-(6-(2-methoxypyrimidin-5-yl)pyridazin-3-yl)piperidin-4-yl)indoline]
7.35	92%	7.04	Cn1cc(-c2ccc(N3CCC(n4ncc5ccccc54)CC3)nn2)cn1 [compound 40, 1-(1-(6-(1-methyl-1H-pyrazol-4-yl)pyridazin-3-yl)piperidin-4-yl)-1H-indazole]
8.22	98%	7.82	CC(=O)Nc1ccc(-c2ccc(N3CCC(N4CCc5ccc(F)cc54)CC3)nn2)cn1 [compound 45, N-(5-(6-(4-(6-fluoroindolin-1-yl)piperidin-1-yl)pyridazin-3-yl)pyridin-2-yl)acetamide]
7.77	101%	7.82	Cn1cc(-c2ccc(N3CCC(n4ncc5c(Cl)cccc54)CC3)nn2)cn1 [compound 61, 4-chloro-1-(1-(6-(1-methyl-1H-pyrazol-4-yl)pyridazin-3-yl)piperidin-4-yl)-1H-indazole]
6.25	68%	6.41	NC(=O)Cn1cc(-c2ccc(N3CCC(N4CCc5ccc(F)cc54)CC3)nn2)cn1 [compound 69, 2-(4-(6-(4-(6-fluoroindolin-1-yl)piperidin-1-yl)pyridazin-3-yl)-1H-pyrazol-1-yl)acetamide]
7.09	94%	7.17	Cn1cc(-c2ccc(N3CCC(n4ncc5c(F)cccc54)CC3)nn2)cn1 [compound 70, 4-fluoro-1-(1-(6-(1-methyl-1H-pyrazol-4-yl)pyridazin-3-yl)piperidin-4-yl)-1H-indazole]
< 6.00 and 6.80	71%	6.56	Fc1ccc2c(c1)N(C1CCN(c3ccc(-c4cnn(CCN5CCOCC5)c4)nn3)CC1)CC2 [compound 71, 4-(2-(4-(6-(4-(6-fluoroindolin-1-yl)piperidin-1-yl)pyridazin-3-yl)-1H-pyrazol-1-yl)ethyl)morpholine]
6.58	86%	6.84	Cn1cc(-c2ccc(N3CCC(n4ncc5cc(F)ccc54)CC3)nn2)cn1 [compound 73, 5-fluoro-1-(1-(6-(1-methyl-1H-pyrazol-4-yl)pyridazin-3-yl)piperidin-4-yl)-1H-indazole]
7.66	96%	7.80	Cn1cc(-c2ccc(N3CCC(n4ncc5ccc(Cl)cc54)CC3)nn2)cn1 [compound 74, 6-chloro-1-(1-(6-(1-methyl-1H-pyrazol-4-yl)pyridazin-3-yl)piperidin-4-yl)-1H-indazole]
7.09	98%	7.68	CCOCCn1cc(-c2ccc(N3CCC(c4noc5ccc(F)cc45)CC3)nn2)cn1 [compound 75, 3-(1-(6-(1-(2-ethoxyethyl)-1H-pyrazol-4-yl)pyridazin-3-yl)piperidin-4-yl)-5-fluorobenzo[d]isoxazole]
7.70	95%	7.68	Fc1ccc2c(c1)N(C1CCN(c3ccc(-c4cn[nH]c4)nn3)CC1)CC2 [compound 77, 1-(1-(6-(1H-pyrazol-4-yl)pyridazin-3-yl)piperidin-4-yl)-6-fluoroindoline]
6.14	74%	7.28	Cn1cc(-c2ccc(N3CCC(n4ncc5c(C(F)(F)F)cccc54)CC3)nn2)cn1 [compound 80, 1-(1-(6-(1-methyl-1H-pyrazol-4-yl)pyridazin-3-yl)piperidin-4-yl)-4-(trifluoromethyl)-1H-indazole]
7.82	96%	8.10	Cn1cc(-c2ccc(N3CCC(n4ncc5ccc(C(F)(F)F)cc54)CC3)nn2)cn1 [compound 81, 1-(1-(6-(1-methyl-1H-pyrazol-4-yl)pyridazin-3-yl)piperidin-4-yl)-6-(trifluoromethyl)-1H-indazole]
7.02	99%	7.28	OCCn1cc(-c2ccc(N3CCC(n4ncc5ccc(F)cc54)CC3)nn2)cn1 [compound 82, 2-(4-(6-(4-(6-fluoro-1H-indazo-1-yl)piperidin-1-yl)pyridazin-3-yl)-1H-pyrazol-1-yl)ethanol]
7.96	102%	8.22	Cn1cc(-c2ccc(N3CCC(n4nc(Cl)c5ccccc54)CC3)nn2)cn1 [compound 83, 3-chloro-1-(1-(6-(1-methyl-1H-pyrazol-4-yl)pyridazin-3-yl)piperidin-4-yl)-1H-indazole]
7.40	96%	7.92	Cc1cnn(-c2ccc(N3CCC(c4noc5ccc(F)cc45)CC3)nn2)c1 [compound 94, 5-fluoro-3-(1-(6-(4-methyl-1H-pyrazol-1-yl)pyridazin-3-yl)piperidin-4-yl)benzo[d]isoxazote]
7.66	98%	8.10	COCc1cnn(-c2ccc(N3CCC(c4noc5ccc(F)cc45)CC3)nn2)c1 [compound 96, 5-fluoro-3-(1-(6-(4-(methoxymethyl)-1H-pyrazol-1-yl)pyridazin-3-yl)piperidin-4-yl)benzo[d]isoxazole]
< 6.00	11%		CNCc1cnn(-c2ccc(N3CCC(c4noc5ccc(F)cc45)CC3)nn2)c1 [compound 97, 1-(1-(6-(4-(5-fluorobenzo[d]isoxazol-3-yl)piperidin-1-yl)pyridazin-3-yl)-1H-pyrazol-4-yl)-N-methylmethanamine]

Compound	pIC50 [1]	inhibition at 1 µM [2]	pIC50 [2]
CCOC(=O)Cn1cc(-c2ccc(N3CCC(N4CCc5ccc(F)cc54)CC3)nn2)cn1 [compound 50, ethyl 2-(4-(6-(4-(6-fluoroindolin-1-yl)piperidin-1-yl)pyridazin-3-yl)-1H-pyrazol-1-yl)acetate]	7.36	93%	7.51
OCc1cnn(-c2ccc(N3CCC(c4noc5ccc(F)cc45)CC3)nn2)c1 [compound 95, (1-(6-(4-(5-fluorobenzo[d]isoxazol-3-yl)piperidin-1-yl)pyridazin-3-yl)-1H-pyrazol-4-yl)methanol]	7.21	88%	7.02
